We go through 19 molecules from ChEMBL document CHEMBL2163227, “Synthesis and biological characterization of a series of novel diaryl amide M₁ antagonists” (Bioorg Med Chem Lett, 2012).

Molecules are shown by their SMILES. The source made the active and inactive calls. No cut-off for these calls is given here.

One test addresses T1, Muscarinic acetylcholine receptor M1 (Homo sapiens) (UniProt P11229).
T1 sequence (whole entry): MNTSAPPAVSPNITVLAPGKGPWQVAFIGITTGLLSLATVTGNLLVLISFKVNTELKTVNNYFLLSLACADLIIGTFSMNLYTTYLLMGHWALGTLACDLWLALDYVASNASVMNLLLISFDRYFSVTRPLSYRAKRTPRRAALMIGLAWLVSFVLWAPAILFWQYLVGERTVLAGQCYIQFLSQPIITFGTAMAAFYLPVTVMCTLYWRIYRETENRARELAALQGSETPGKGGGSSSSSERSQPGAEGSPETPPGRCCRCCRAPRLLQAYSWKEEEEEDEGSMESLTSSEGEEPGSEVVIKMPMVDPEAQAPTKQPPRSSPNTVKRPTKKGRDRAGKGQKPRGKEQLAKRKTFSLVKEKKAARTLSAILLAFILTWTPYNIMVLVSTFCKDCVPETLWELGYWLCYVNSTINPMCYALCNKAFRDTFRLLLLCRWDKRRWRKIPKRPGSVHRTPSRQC
Put plainly: Antagonist activity at human muscarinic M1 receptor expressed in CHO cells assessed as inhibition of Ach-mediated response by calcium mobilization assay. The test is classed as functional, cell-based.
Conditions: not given
With `CN1CCN(C(=O)[C@H](Cc2ccccc2)c2ccccc2)CC1`, the inhibition entry was “Dose-dependent effect”.
The same measure, in the same setting: the result for `CN1CCN(C(=O)[C@@](F)(Cc2ccccc2)c2ccccc2)CC1` (mixture of isomers) reads “Dose-dependent effect”.

The target of another test is T1, Muscarinic acetylcholine receptor M1 (Homo sapiens). Kind of test: (§1) Antagonist activity at human muscarinic M1 receptor.
Conditions: not given
It counts as functional. Set-up: concentration or dose not given beside the values.
`CCN1CCN(C(=O)C(Cc2ccccc2)c2ccccc2)CC1C` (stereo not given): the Activity amounted to 1.4%.
Still for that read-out and setting: as for `CC(C)N1CCN(C(=O)C(Cc2ccccc2)c2ccccc2)CC1` (stereo not given), the figure is 1.3%; as for `CN1CCN(C(=O)C(F)(Cc2ccccc2)c2ccccc2)CC1` (stereo not given), 3.1%; as for `CN(C)CCNC(=O)C(Cc1ccccc1)c1ccccc1` (stereo not given), 3.5%.
For the molecule `CN1CCN(C(=O)[C@H](Oc2ccccc2)c2ccccc2)CC1` (mixture of isomers), the Activity was determined as 3.4%.
On the same count and under the same terms, the result for `CN(C)CCOC(=O)C(Cc1ccccc1)c1ccccc1` (stereo not given) reads 1.5%.
With `CN1CCN(C(=O)C(C)(Cc2ccccc2)c2ccccc2)CC1` (stereo not given), the Activity stood at 39.1%.
Same read-out and setting: as for `CN(C)CCN(C)C(=O)C(Cc1ccccc1)c1ccccc1` (stereo not given), the figure is 37.1%; as for `CC(C)CN1CCN(C(=O)C(Cc2ccccc2)c2ccccc2)CC1` (stereo not given), 35.9%; as for `CN1C[C@@H]2CN(C(=O)C(Cc3ccccc3)c3ccccc3)C[C@@H]2C1` (stereo not given in full), 6.7%.
Same read-out and setting: the result for `COCCN1CCN(C(=O)C(Cc2ccccc2)c2ccccc2)CC1` (stereo not given) reads 10.9%.
For the molecule `CC(C)N1CCCN(C(=O)C(Cc2ccccc2)c2ccccc2)CC1` (stereo not given), the Activity came out at 2.4%.
Turning to `CC1CCN(C)CCN1C(=O)C(Cc1ccccc1)c1ccccc1` (stereo not given), the Activity was 29.6%.
On the same count and under the same terms, the result for `CN1CCN(C(=O)C(Cc2ccncc2)c2ccccc2)CC1` (stereo not given) reads 3.5%; that for `CCN1CCN(C(=O)C(Cc2ccccc2)c2ccccc2)CC1` (stereo not given), 1.8%; that for `CN1CCN(C(=O)[C@@H](Cc2ccccc2)c2ccccc2)CC1`, “inactive”.
On the same count and under the same terms, as for `O=C(C(Cc1ccccc1)c1ccccc1)N1CCNCC1` (stereo not given), the figure is 26.1%; as for `CN1CCN(C(=O)[C@@](F)(Cc2ccccc2)c2ccccc2)CC1` (mixture of isomers), 2.7%.

The target in another test is T2, Muscarinic acetylcholine receptor M1 (Homo sapiens, UniProt P11229).
T2 sequence (P11229 whole entry): T1 sequence (whole entry)
Described as §1. It counts as functional.
Conditions: not given
For the molecule `CN1CCN(C(=O)C(F)(Cc2ccccc2)c2ccccc2)CC1` (stereo not given), it took 28.2 nM to reach a half-maximal effect (EC50).

The same test, now with this note: read-out: IC50.
With `CCN1CCN(C(=O)C(Cc2ccccc2)c2ccccc2)CC1C` (stereo not given), the IC50 came out at 260 nM.
As to `CC(C)N1CCN(C(=O)C(Cc2ccccc2)c2ccccc2)CC1` (stereo not given), the IC50 is 440 nM.
Still for that read-out and setting: as for `CN1CCN(C(=O)C(F)(Cc2ccccc2)c2ccccc2)CC1` (stereo not given), the figure is 29 nM.
Consider `CN(C)CCNC(=O)C(Cc1ccccc1)c1ccccc1` (stereo not given), for which the IC50 was above 10000 nM.
Same read-out and setting: the result for `CN1CCN(C(=O)[C@H](Oc2ccccc2)c2ccccc2)CC1` (mixture of isomers) reads 240 nM; that for `CN(C)CCOC(=O)C(Cc1ccccc1)c1ccccc1` (stereo not given), 140 nM.
Same read-out and setting: as for `CN1CCN(C(=O)C(C)(Cc2ccccc2)c2ccccc2)CC1` (stereo not given), the figure is above 10000 nM; as for `CN(C)CCN(C)C(=O)C(Cc1ccccc1)c1ccccc1` (stereo not given), above 10000 nM.
Turning to `CC(C)CN1CCN(C(=O)C(Cc2ccccc2)c2ccccc2)CC1` (stereo not given), the IC50 is above 10000 nM.
Still for that read-out and setting: as for `CN1C[C@@H]2CN(C(=O)C(Cc3ccccc3)c3ccccc3)C[C@@H]2C1` (stereo not given in full), the figure is above 10000 nM.
For the molecule `COCCN1CCN(C(=O)C(Cc2ccccc2)c2ccccc2)CC1` (stereo not given), the IC50 is above 10000 nM.
On the same count and under the same terms, as for `CC(C)N1CCCN(C(=O)C(Cc2ccccc2)c2ccccc2)CC1` (stereo not given), the figure is 100 nM.
As for `CC1CCN(C)CCN1C(=O)C(Cc1ccccc1)c1ccccc1` (stereo not given), the IC50 was above 10000 nM.
Consider `CN1CCN(C(=O)C(Cc2ccncc2)c2ccccc2)CC1` (stereo not given), for which the IC50 came to 880 nM.
Same read-out and setting: as for `CCN1CCN(C(=O)C(Cc2ccccc2)c2ccccc2)CC1` (stereo not given), the figure is 570 nM.
Same read-out and setting: the result for `O=C(C(Cc1ccccc1)c1ccccc1)N1CCNCC1` (stereo not given) reads above 10000 nM; that for `CN1CCN(C(=O)[C@H](Cc2ccccc2)c2ccccc2)CC1`, 33 nM.
Turning to `CN1CCN(C(=O)[C@@](F)(Cc2ccccc2)c2ccccc2)CC1` (mixture of isomers), the IC50 worked out at 18 nM.

A further test has as its target T3, Muscarinic acetylcholine receptor M5 (Homo sapiens, UniProt P08912).
T3 sequence (P08912 whole entry): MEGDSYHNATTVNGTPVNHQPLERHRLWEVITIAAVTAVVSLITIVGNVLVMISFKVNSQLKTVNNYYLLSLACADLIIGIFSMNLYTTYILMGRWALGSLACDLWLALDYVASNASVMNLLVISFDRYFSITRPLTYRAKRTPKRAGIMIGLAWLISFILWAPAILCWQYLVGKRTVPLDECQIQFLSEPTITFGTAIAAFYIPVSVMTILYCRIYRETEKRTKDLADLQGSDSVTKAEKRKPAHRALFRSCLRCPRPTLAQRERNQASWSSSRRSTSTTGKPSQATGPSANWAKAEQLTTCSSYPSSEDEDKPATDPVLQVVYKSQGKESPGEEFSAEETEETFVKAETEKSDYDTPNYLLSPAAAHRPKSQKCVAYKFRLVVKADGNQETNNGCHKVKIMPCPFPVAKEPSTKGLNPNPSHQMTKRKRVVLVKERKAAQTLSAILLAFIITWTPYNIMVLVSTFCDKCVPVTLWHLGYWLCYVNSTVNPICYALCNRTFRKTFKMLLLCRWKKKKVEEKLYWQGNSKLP
Put plainly: Antagonist activity at human muscarinic M5 receptor by calcium mobilization assay.
Conditions: not given
The test is classed as functional.
As to `CN1CCN(C(=O)[C@@](F)(Cc2ccccc2)c2ccccc2)CC1` (mixture of isomers), the IC50 came to 82 nM.

The target in the next test is T4, Muscarinic acetylcholine receptor M4 (Homo sapiens, UniProt P08173).
T4 sequence (P08173 whole entry): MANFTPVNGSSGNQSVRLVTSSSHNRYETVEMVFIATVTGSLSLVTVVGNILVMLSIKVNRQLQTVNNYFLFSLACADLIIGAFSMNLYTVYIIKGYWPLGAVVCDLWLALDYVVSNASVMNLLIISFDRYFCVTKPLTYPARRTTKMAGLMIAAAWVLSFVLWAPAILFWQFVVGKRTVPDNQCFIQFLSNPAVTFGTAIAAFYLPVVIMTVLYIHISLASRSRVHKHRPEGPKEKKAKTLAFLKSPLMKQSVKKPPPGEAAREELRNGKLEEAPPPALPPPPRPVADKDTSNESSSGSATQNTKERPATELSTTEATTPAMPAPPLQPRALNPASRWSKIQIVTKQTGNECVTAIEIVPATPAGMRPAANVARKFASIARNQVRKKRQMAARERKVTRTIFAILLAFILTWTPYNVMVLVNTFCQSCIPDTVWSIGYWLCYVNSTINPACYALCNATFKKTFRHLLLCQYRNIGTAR
Put plainly: Antagonist activity at human muscarinic M4 receptor by calcium mobilization assay. It counts as functional.
Conditions: not given
For the molecule `CN1CCN(C(=O)[C@@](F)(Cc2ccccc2)c2ccccc2)CC1` (mixture of isomers), the IC50 is 140 nM.

The target in another test is Muscarinic acetylcholine receptor M3 (Homo sapiens, UniProt P20309). Put plainly: Antagonist activity at human muscarinic M3 receptor by calcium mobilization assay. It counts as functional.
Sequence of Muscarinic acetylcholine receptor M3 (P20309 whole entry): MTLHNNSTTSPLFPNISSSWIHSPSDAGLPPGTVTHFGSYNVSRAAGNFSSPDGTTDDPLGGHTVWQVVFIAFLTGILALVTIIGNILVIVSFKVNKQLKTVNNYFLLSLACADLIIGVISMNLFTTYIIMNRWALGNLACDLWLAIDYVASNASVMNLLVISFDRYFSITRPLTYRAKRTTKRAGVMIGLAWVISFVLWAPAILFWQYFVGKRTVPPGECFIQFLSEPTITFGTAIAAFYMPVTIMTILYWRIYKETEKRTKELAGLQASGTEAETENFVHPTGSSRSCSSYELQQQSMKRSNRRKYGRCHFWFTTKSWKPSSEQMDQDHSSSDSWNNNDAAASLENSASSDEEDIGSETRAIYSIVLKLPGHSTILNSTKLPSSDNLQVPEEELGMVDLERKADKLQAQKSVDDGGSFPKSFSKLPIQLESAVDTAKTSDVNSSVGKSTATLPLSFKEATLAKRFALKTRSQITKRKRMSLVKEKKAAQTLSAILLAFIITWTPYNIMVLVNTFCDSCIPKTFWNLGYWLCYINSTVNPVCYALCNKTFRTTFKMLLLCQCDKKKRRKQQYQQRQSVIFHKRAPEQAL
Conditions: not given
Turning to `CN1CCN(C(=O)[C@@](F)(Cc2ccccc2)c2ccccc2)CC1` (mixture of isomers), the IC50 was above 1500 nM.

The next test deals with T5, Muscarinic acetylcholine receptor M2 (Homo sapiens, UniProt P08172).
T5 sequence (P08172 whole entry): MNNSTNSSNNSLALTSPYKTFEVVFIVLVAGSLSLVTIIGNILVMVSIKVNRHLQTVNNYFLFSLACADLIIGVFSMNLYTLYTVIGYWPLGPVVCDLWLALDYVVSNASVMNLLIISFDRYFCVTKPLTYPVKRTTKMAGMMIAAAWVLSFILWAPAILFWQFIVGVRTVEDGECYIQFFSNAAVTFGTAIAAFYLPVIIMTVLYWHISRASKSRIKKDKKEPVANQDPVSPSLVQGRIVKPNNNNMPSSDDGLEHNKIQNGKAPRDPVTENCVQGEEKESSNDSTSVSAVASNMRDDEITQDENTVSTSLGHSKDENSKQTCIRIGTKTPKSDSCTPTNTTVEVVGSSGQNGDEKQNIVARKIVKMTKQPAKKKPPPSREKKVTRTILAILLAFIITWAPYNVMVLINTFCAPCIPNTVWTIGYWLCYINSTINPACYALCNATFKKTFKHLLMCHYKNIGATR
Put plainly: Antagonist activity at human muscarinic M2 receptor by calcium mobilization assay. The test is classed as functional.
Conditions: not given
Regarding `CN1CCN(C(=O)[C@@](F)(Cc2ccccc2)c2ccccc2)CC1` (mixture of isomers), the IC50 is above 1500 nM.

The next test addresses T1, Muscarinic acetylcholine receptor M1 (Homo sapiens). Kind of test: Antagonist activity at human muscarinic M1 receptor at 30 uM. It counts as functional.
Conditions: not given
With `CN(C)CCNC(=O)C(Cc1ccccc1)c1ccccc1` (stereo not given), the result was inactive.
For the molecule `CN(C)CCN(C)C(=O)C(Cc1ccccc1)c1ccccc1` (stereo not given), the outcome was inactive.
Same read-out and setting: the result for `CC(C)CN1CCN(C(=O)C(Cc2ccccc2)c2ccccc2)CC1` (stereo not given) reads “inactive”; that for `CN1C[C@@H]2CN(C(=O)C(Cc3ccccc3)c3ccccc3)C[C@@H]2C1` (stereo not given in full), “inactive”; that for `COCCN1CCN(C(=O)C(Cc2ccccc2)c2ccccc2)CC1` (stereo not given), “inactive”.
As for `CC1CCN(C)CCN1C(=O)C(Cc1ccccc1)c1ccccc1` (stereo not given), the outcome was inactive.
On the same count and under the same terms, the result for `O=C(C(Cc1ccccc1)c1ccccc1)N1CCNCC1` (stereo not given) reads “inactive”.
